Results: patent US9676997B2, “Compositions and methods for stabilizing luminogenic substrates” (Promega Corporation, priority 2014, dated 2017)

Assays:
Assay type in all cases: physicochemical
[1] = Stability of 1.25 mM furimazine in 50% ethanol and 50% propylene glycol with or without 225 mM ATT, in the presence of light, HPLC and Arrhenius plots; details: for relative peak area percentage at 262 nm: in the presence of light
Description: The stability of furimazine in the presence and absence of ATT was measured over time at different temperatures. This study was conducted in the presence of light. Specifically, 1.25 mM furimazine was present in a solution of 50% ethanol and 50% propylene glycol (i.e., the solution without ATT) or a solution of 50% ethanol and 50% propylene glycol with 225 mM ATT (i.e., the solution with ATT). […]
Following incubation, high performance liquid chromatography (HPLC) was utilized to identify the components of the respective solutions at each time point. Specifically, an Agilent 1100 HPLC instrument was used and equipped with a quaternary pump, thermostatted autosampler and column compartment, and a G1311B diode-array detector. The column used was a Synergi-MAX-RP (Phenomenex, Torrance, Calif.) 100 AÅ 50×4.6 2.5 μm. The run on the HPLC was a gradient run with 0.1% TFA in water and acetonitrile. Absorbance was measured at 262 nanometers (nm). Standards of furimazine and its known degradants were run to confirm both the retention time and absorbance trace. 5 μl of each solution was injected and the retention time of furimazine at room temperature was 5.1 minutes.
The results of the HPLC analysis are shown below in Tables 10 and 11 and FIGS. 4A and 4B, in which the values are reported as relative peak area percentage at 262 nm (i.e., the lamba max of the substrate). […] In each of FIGS. 4A and 4B, diamond is 1.25 mM furimazine incubated over time with or without 225 mM ATT, respectively, at −20° C., triangle is 1.25 mM furimazine incubated over time with or without 225 mM ATT, respectively, at 20° C., star is 1.25 mM furimazine incubated over time with or without 225 mM ATT, respectively, at 40° C., and cross is 1.25 mM furimazine incubated over time with or without 225 mM ATT, respectively, at 60° C.
Additionally, Arrhenius plots were generated for furimazine in the presence and absence of ATT to calculate the half-life of furimazine at various temperatures. The Arrhenius equation is as follows: […]
In FIG. 5, the slope was −10831.4, the intercept was 31.3561, and R^2 was 0.9813.
In FIG. 6, the slope was −10106.2, the intercept was 30.1809, and R^2 was 0.9984.

[2] = Photostability of 1.25 mM furimazine in 50% propylene glycol:50% ethanol with or without 225 mM ATT, HPLC; details: for 10% loss / 50% loss: in the light
Description: Specifically, a 2× stock solution of ATT in 50% propylene glycol:50% ethanol (v/v) was prepared, in which the final concentration of ATT was 64.4 mg/mL. A 2× stock solution of furimazine in 50% propylene glycol:50% ethanol (v/v) was also prepared, in which the final concentration of furimazine was 0.95 mg/mL. In one vial, the 2×ATT stock solution was diluted 1:1 in the 2×furimazine stock solution to create a solution containing 225 mM ATT and 1.25 mM furimazine. In a second vial, the 2×furimazine stock solution was diluted 1:1 in 50% propylene glycol:50% ethanol (v/v) to create a control solution without the additive ATT (i.e., “no additive furimazine” control) and containing 1.25 mM furimazine.
The content of each vial was dispensed into separate, clear HPLC vials with insert and these HPLC vials were placed at room temperature (i.e., about 20° C.) in the light (i.e., in the presence of overhead fluorescent light) and at 40° C. in the light. There was one HPLC vial per time point for each temperature.
Stability was measured by HPLC with 5 μL injection and detection at 262 nm. In each chromatogram, the area of the furimazine peak was determined. Stability curves were generated by plotting the area (10^6) vs. time (days) and are shown in FIGS. 13A and 13B for room temperature and 40° C., respectively.

[3] = Stability of 1.25 mM furimazine in DMSO with or without 225 mM ATT, HPLC; details: room temperature, 40° C., and 60° C., in the presence of light
Description: To further examine the stabilization of furimazine by ATT, stability of furimazine was measured at room temperature, 40°, and 60° C. in a different organic solvent, namely DMSO. This study was performed in the presence of light.
Specifically, a 2× stock solution of ATT in DMSO was prepared, in which the final concentration of ATT was 64.4 mg/mL. A 2× stock solution of furimazine in DMSO was also prepared, in which the final concentration of furimazine was 0.95 mg/mL. In one vial, the 2× ATT stock solution was diluted 1:1 in the 2× furimazine stock solution to create a solution containing 225 mM ATT and 1.25 mM furimazine. In a second vial, furimazine was diluted 1:1 in DMSO to create a control solution without the additive ATT (i.e., “no additive furimazine” control) and containing 1.25 mM furimazine.
The content of each vial was dispensed into separate, clear HPLC vials with insert and these HPLC vials were placed at room temperature (i.e., about 20° C.), 40° C., and 60° C. There was one HPLC vial per time point for each temperature.
Stability was measured by HPLC with 5 μL injection and detection at 262 nm. In each chromatogram, the area percentage of furimazine was determined.

Q: Which “stabilization of furimazine against decomposition” value ([1]; 225 mM ATT, over time at different temperatures) does the source give for `Cc1n[nH]c(=S)[nH]c1=O` [ATT, 6-methyl-3-thioxo-3,4-dihydro-1,2,4-triazin-5(2H)-one] here?
A: The value was “stabilized furimazine against decomposition over time at different temperatures”.

Q: What about the “stabilization of furimazine against decomposition in the presence of light” value ([2]; 225 mM ATT, room temperature and 40° C.) of the same compound?
A: Its value is “stabilized furimazine against decomposition in the presence of light at different temperatures”.

Q: What about the “stabilization of furimazine in DMSO against decomposition” value [3] of the same compound?
A: The value was “stabilized furimazine in DMSO against decomposition at different temperatures”.

Q: With `O=c1c(Cc2ccco2)nc2c(Cc3ccccc3)[nH]c(-c3ccccc3)cn1-2` [Furimazine, furimazine] as the compound, how does the “relative peak area percentage at 262 nm” value ([1]; 40° C., 0 days) read?
A: The value was 89.7%.

Q: And the “relative peak area percentage at 262 nm” value ([1]; 40° C., 1 day)?
A: Its value is 93.8%.

Q: What about the “relative peak area percentage at 262 nm” value ([1]; 40° C., 5 days) of the same compound?
A: The value was 65%.

Q: What about the “relative peak area percentage at 262 nm” value ([1]; 40° C., 8 days) of the same compound?
A: The value was 50.1%.

Q: And the “relative peak area percentage at 262 nm” value ([1]; 40° C., 14 days)?
A: Its value is 27%.

Q: What about the “relative peak area percentage at 262 nm” value ([1]; 40° C., 30 days) of the same compound?
A: Its value is 3.5%.

Q: And the “relative peak area percentage at 262 nm” value ([1]; 40° C., 90 days)?
A: Its value is 0%.

Q: And the “relative peak area percentage at 262 nm” value ([1]; 60° C., 0 days)?
A: Its value is 89.7%.

Q: And the “relative peak area percentage at 262 nm” value ([1]; 60° C., 1 day)?
A: Its value is 70.1%.

Q: And the “relative peak area percentage at 262 nm” value ([1]; 60° C., 5 days)?
A: The value was 1.3%^.

Q: What about the “relative peak area percentage at 262 nm” value ([1]; 60° C., 8 days) of the same compound?
A: Its value is 0%.

Q: What about the “relative peak area percentage at 262 nm” value ([1]; 60° C., 14 days) of the same compound?
A: The value was 0%.

Q: And the “relative peak area percentage at 262 nm” value ([1]; 60° C., 30 days)?
A: Its value is 0%.

Q: And the “relative peak area percentage at 262 nm” value ([1]; 60° C., 90 days)?
A: Its value is 0%.

Q: And the “relative peak area percentage at 262 nm” value ([1]; RT (20° C.), 0 days)?
A: Its value is 89.7%.

Q: And the “relative peak area percentage at 262 nm” value ([1]; RT (20° C.), 1 day)?
A: The value was 97.2%.

Q: What about the “relative peak area percentage at 262 nm” value ([1]; RT (20° C.), 5 days) of the same compound?
A: The value was 93.8%.

Q: What about the “relative peak area percentage at 262 nm” value ([1]; RT (20° C.), 8 days) of the same compound?
A: Its value is 91.7%.

Q: And the “relative peak area percentage at 262 nm” value ([1]; RT (20° C.), 14 days)?
A: Its value is 86.7%.

Q: And the “relative peak area percentage at 262 nm” value ([1]; RT (20° C.), 30 days)?
A: The value was 74.8%.

Q: What about the “relative peak area percentage at 262 nm” value ([1]; RT (20° C.), 90 days) of the same compound?
A: The value was 27.1%.

Q: And the Arrhenius plot intercept ([1]; decomposition of furimazine)?
A: The Arrhenius plot intercept was 30.1809.

Q: What about the Arrhenius plot slope ([1]; decomposition of furimazine) of the same compound?
A: Its Arrhenius plot slope is −10106.2.

Q: What about the “relative peak area percentage at 262 nm” value ([1]; −20° C., 0 days) of the same compound?
A: Its value is 89.7%.

Q: And the “relative peak area percentage at 262 nm” value ([1]; −20° C., 1 day)?
A: The value was 98.3%.

Q: And the “relative peak area percentage at 262 nm” value ([1]; −20° C., 5 days)?
A: Its value is 96.9%.

Q: And the “relative peak area percentage at 262 nm” value ([1]; −20° C., 8 days)?
A: The value was 98.2%.

Q: What about the “relative peak area percentage at 262 nm” value ([1]; −20° C., 14 days) of the same compound?
A: The value was 97.7%.

Q: What about the “relative peak area percentage at 262 nm” value ([1]; −20° C., 30 days) of the same compound?
A: Its value is 98.3%.

Q: And the “relative peak area percentage at 262 nm” value ([1]; −20° C., 90 days)?
A: Its value is 95.3%.

Q: What about the “10% loss” value ([2]; 40° C.) of the same compound?
A: The value was 0.4 days.

Q: What about the “50% loss” value ([2]; 40° C.) of the same compound?
A: Its value is 3.6 days.

Q: What about the “10% loss” value ([2]; room temperature) of the same compound?
A: Its value is 0.5 days.

Q: And the “50% loss” value ([2]; room temperature)?
A: Its value is 2.1 days.
